Test results taken from publication PMC6748986, “Potent modulation of the CepR quorum sensing receptor and virulence in a Burkholderia cepacia complex member using non-native lactone ligands” (Scientific Reports, 2019).
Numbering of substitutions follows the chain as printed. Where two headings read alike, the source gives them in different places.

How the values were obtained:
CepR [1] = system: CepR; design: method as in PMID 15978077; details: at concentrations greater than 1 μM; cited from earlier work
CepR [2] = biological target: T1, CepR (Burkholderia cenocepacia, UniProt B4EMD0); assay: CepR agonism in E. coli β-galactosidase reporter (Ec-reporter) JLD271 [pJN105-cepR + pSC11-cepI]; type: cell-based, B. cenocepacia; details: for Act%: Table S2, Ec-reporter, screening conc. 100 μM; for Maximal Activation (%): activity for 100 μM C8-AHL set to 100%, error ±10%
T1 sequence (B4EMD0 1-239): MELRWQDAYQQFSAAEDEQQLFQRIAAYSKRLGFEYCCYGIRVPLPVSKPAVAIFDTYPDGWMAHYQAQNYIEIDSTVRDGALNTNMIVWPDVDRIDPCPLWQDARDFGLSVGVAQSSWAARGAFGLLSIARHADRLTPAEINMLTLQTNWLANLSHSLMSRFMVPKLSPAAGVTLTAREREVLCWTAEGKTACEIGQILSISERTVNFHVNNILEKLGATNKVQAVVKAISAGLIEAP
How it was run: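 E. coli JLD271 (ΔsdiA) carrying arabinose-inducible CepR (27 mM L-arabinose) and cepI-lacZ fusion, grown 4 h with compound; β-galactosidase measured by CPRG cleavage at 37 °C (~30 min), normalized to OD600. Agonism compared with C8-AHL at 100 μM; screen at 100 μM or solubility limit, then dose-response; ≥3 trials.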

CepR [3] = biological target: T1, CepR; assay: CepR antagonism in E. coli β-galactosidase reporter (Ec-reporter), competition against C8-AHL; type: cell-based, B. cenocepacia; details: for Inh% (100-Act%): screening conc. 100 μM
How it was run: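 CepR antagonism was measured in E. coli JLD271 (∆sdiA) carrying pJN105-cepR, which expresses B. cenocepacia CepR from an arabinose-inducible pBAD promoter, and pSC11-cepI, which fuses lacZ to the cepI promoter. Induced cells were grown 4 h with compound and 10 nM C8-AHL. β-Galactosidase activity was then read by CPRG cleavage at 37 °C after Z Buffer permeabilization.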

CepR [4] = biological target: T2, CepR (Burkholderia multivorans, UniProt Q93PF7); assay: CepR antagonism in B. multivorans cepI::lacZ reporter (Bm-reporter), competition against C8-AHL; type: cell-based; details: for Inh% (100-Act%): screening conc. 100 μM; for IC50: read-out: IC50
T2 sequence (Q93PF7 1-239): T1 sequence (B4EMD0 1-239) with W5R, A51S, Q69H, N84S, R95Q, D97A
Description: (§1) We next sought to assess if the CepR modulators identified in the Ec-reporter maintained their activities in a member of the Bcc. For these studies, we generated a B. multivorans cepI::lacZ reporter organism (Bm-reporter) using standard allelic exchange methods (see Methods). Along with B. cenocepacia, B. multivorans is one of the most commonly isolated Bcc members[6],[44]. We note that small molecules must contend with a different cellular environment in the native organism relative to E. coli[48]; however, as both CepR and the cepI promoter are highly conserved among Bcc species (Fig. S3), we reasoned that the majority of compounds identified in the Ec-reporter (containing B. cenocepacia versions of the cepI promoter and the cepR gene) would maintain their relative activity profiles in CepR in B. multivorans. […] Similar to the Ec-reporter, CepR binding to the cepI promoter then induces β-galactosidase production, allowing for the quantitation of CepR activity. Using the Bm-reporter organism, we observed robust activity for CepR in response to C8-AHL (EC50 = 0.7 nM, Table 3).
(§2) The B. multivorans cepI::lacZ strain was used to obtain dose-response data for CepR in response to synthetic AHLs. Overnight cultures of B. multivorans cepI::lacZ were grown in LB medium at 37 °C with shaking (225 rpm). Aliquots (200 μL) of a 1:10 dilution of this overnight culture were plated into 96-well plates containing varying concentrations of compound, and then grown for 4 h at 37 °C with shaking (225 rpm). β-galactosidase production was measured as described above for E. coli, with the following changes: permeabilized cells were incubated at 25 °C with substrate CPRG for ~10 min until positive control wells developed a deep red color. For agonism assays, synthetic compound was screened alongside and compared to the native ligand, C8-AHL (100 μM). For antagonism assays, the concentration of native ligand utilized was 5 nM (approximately equal to twice its EC50 value).

CepR [5] = biological target: T2, CepR; assay: CepR agonism in B. multivorans cepI::lacZ reporter (Bm-reporter); type: cell-based; details: Table S4, Bm-reporter; screening conc. 100 μM
Description: as §1, §2

[6] = Table S3, Ec-reporter, against 10 nM C8-AHL
[7] = Ec-reporter, against 10 nM C8-AHL
[8] = Bm-reporter, against 5 nM C8-AHL

Row | Structure (SMILES) | Act% (CepR [2]) [%] | Inh% (100-Act%) (CepR [3]; [6]) [%] | Inh% (100-Act%) (CepR [4]; Table S5, Bm-reporter) [%] | IC50 (CepR [3]; [7]) [µM] | Maximal Inhibition (%) (CepR [3]; [7]) | Maximal Inhibition (%) (CepR [4]; [8]) | also measured
1 | C#CCCCC(=O)NC1CCOC1=O (stereo not drawn) [5-hexynoyl-HL] |  |  |  |  |  |  | Effect on CepR (CepR [1]): slight inhibitory effects
2 | O=C(Cc1ccc(Cl)c(Cl)c1)N[C@H]1CCOC1=O [Compound E11] | 1.9 | 59 | 94 |  |  |  | 
3 | CCCCCCCCCC(=O)CC(=O)Nc1ccccc1O [Control 14, reference compound] | 30 | 30 | 25 |  |  |  | 
4 | O=C(Cc1cccc(Cl)c1)N[C@H]1CCOC1=O [Compound C6] | 3.2 |  | 98 | 39 | 66 |  | 
5 | CSc1cccc(CC(=O)NC2CCOC2=O)c1 (stereo not drawn) [Compound E7] | 5.9 |  |  | 3.1 | 76 | 97 | CepR antagonism in words (CepR [4]; Bm-reporter): bring reporter activity down to nearly zero; IC50 (CepR [4]; [8]): 4 µM
6 | O=C(Cc1ccccc1I)N[C@H]1CCOC1=O [Compound C12] | -0.4 | 72 | 104 |  |  |  | IC50 (CepR [3]; Table S3, Ec-reporter): 22 µM
7 | O=C(Cc1cccc([N+](=O)[O-])c1)NC1CCOC1=O (stereo not drawn) [Compound C14] | 16 |  |  | 1.4 | 46 | 54 | IC50 (CepR [4]; [8]): 0.62 µM
8 | O=C(Cc1ccc(Br)cc1)N[C@H]1CCOC1=O [Control 7, reference compound] | 0.2 | 89 | 85 |  |  |  | 
9 | CCCCCCS(=O)(=O)N[C@H]1CCOC1=O [Compound A11] | -5.0 |  | 84 |  | 78 |  | CepR agonism in words (CepR [2]; Ec-reporter): failed to activate CepR; Maximal Activation (%) (CepR [2]; Ec-reporter): −5.0%
10 | O=C(Cc1ccccc1Br)N[C@H]1CCOC1=O [Compound C9] | 0.3 | 52 | 99 |  |  |  | IC50 (CepR [3]; Table S3, Ec-reporter): 40 µM
11 | O=C(Cc1ccccc1Cl)N[C@H]1CCOC1=O [Compound C7] | 0.3 |  | 95 | 5.9 | 89 |  | 
12 | O=C(Cc1cccc2ccccc12)N[C@H]1CCOC1=O [Compound E13] | 2.5 | 50 |  |  |  | 13 | IC50 (CepR [3]; Table S3, Ec-reporter): 4.9 µM
13 | O=C(Cc1cccc(I)c1)N[C@H]1CCOC1=O [Compound C11] | 43 | 27 | 80 |  |  |  | Act% (CepR [5]): 2.3%; IC50 (CepR [4]; Table S5, Bm-reporter): 1.6 µM
14 | O=C(COc1cccc([N+](=O)[O-])c1)N[C@H]1CCOC1=O [Compound E25] | 25 |  |  | 3 | 70 | 83 | IC50 (CepR [4]; Table S5, Bm-reporter): ≥ 3.3 µM
15 | CCCCCC(=O)N[C@H]1CCOC1=O [Compound C6-AHL, hexanoyl L-homoserine lactone, reference compound] | 87 |  |  | 7.5 | 83 | 20 | EC50 (CepR [2]; Ec-reporter, agonism dose-response): ≥ 20 µM; Maximal Activation (%) (CepR [2]; Ec-reporter): 87%; Effect on CepR (CepR [1]): slight inhibitory effects
16 | N#Cc1cccc(CC(=O)N[C@H]2CCOC2=O)c1 [Compound E5] | 4.9 |  |  | 2.7 | 81 | 43 | 
17 | N#Cc1ccc(CC(=O)N[C@H]2CCOC2=O)cc1 [Compound E4] | 0.2 | 29 | 97 |  |  |  | IC50 (CepR [4]; Table S5, Bm-reporter): ≥ 4.5 µM
18 | O=C(Nc1ccccc1NC(=O)c1cccc(Cl)c1)c1cccc(Cl)c1 [TP-5, reference compound] | 0.4 | 24 | 15 |  |  |  | 
19 | CCCC(=O)N[C@H]1CCOC1=O [Compound C4-AHL, butanoyl L-homoserine lactone, reference compound] | 23 |  |  | 20 | 58 | 76 | Maximal Activation (%) (CepR [2]; Ec-reporter): 23%; IC50 (CepR [4]; [8]): 0.25 µM
20 | O=C(Cc1ccc(F)c(C(F)(F)F)c1)N[C@H]1CCOC1=O [Compound E10] | 13 |  |  | 0.43 | 79 | 21 | Act% (CepR [5]): 11%
21 | O=C(N[C@H]1CCOC1=O)C1CCCC1 [Compound S4] | 0.2 |  |  | 32 | 72 | 93 | IC50 (CepR [4]; [8]): 3.7 µM
